# Experimental data as given in patent US6054475A, “Substituted dihydrobenzofuran-based phosphodiesterase 4 inhibitors useful for treating airway disorders” (Byk Gulden Lomberg Chemische Fabrik GmbH, priority 1996, dated 2000).
# Test system: PDE4
# Experiment: Inhibition of PDE4 activity (method of Bauer and Schwabe, adapted to microtiter plates)
# Type: biochemical
# Details: Table A; inhibitory concentrations as -log IC50 (mol/l)
# Procedure: The activity test was carried out according to the method of Bauer and Schwabe, which was adapted to microtiter plates (Naunyn-Schmiedeberg's Arch. Pharmacol. 311, 193-198, 1980). The PDE reaction takes place here in the first step. In a second step, the resulting 5'-nucleotide is cleaved to give the uncharged nucleoside by a 5'-nucleotidase of the snake venom from Crotalus atrox. In the third step, the nucleoside is separated from the remaining charged substrate on ion exchange columns. Using 2 ml of 30 mM ammonium formate (pH 6.0), the columns are eluted directly into minivials to which is additionally added 2 ml of scintillator fluid for counting.
row,Structure (SMILES),-log IC50 (inhibition of PDE4 activity)
1,"COc1ccc([C@]2(C#N)CC[C@@H](C(=O)O)CC2)c2c1OC1(CCCC1)C2 [Compound 2.1, cis-4-Cyano-4-(2,3-dihydro-7-methoxybenzofuran-2-spiro-1'-cyclopentan-4-yl)cyclohexane-1-carboxylic acid]",8.22
2,"COc1ccc([C@]2(C#N)CC[C@@H](C(=O)O)CC2)c2c1OC1(CCOCC1)C2 [Compound 4, cis-4-Cyano-4-(2,3-dihydro-7-methoxybenzofuran-2-spiro-4'-tetrahydropyran-4-yl)cyclohexane-1-carboxylic acid]",7.69
3,"COc1ccc([C@]2(C#N)CC[C@@H](C(N)=O)CC2)c2c1OC1(CCCC1)C2 [Compound 5, cis-4-Cyano-4-(2,3-dihydro-7-methoxybenzofuran-2-spiro-1'-cyclopentan-4-yl)cyclohexane-1-carboxamide]",8.31
4,"COc1ccc([C@]2(C#N)CC[C@@H](C(N)=O)CC2)c2c1OC1(CCOCC1)C2 [Compound 6, cis-4-Cyano-4-(2,3-dihydro-7-methoxybenzofuran-2-spiro-4'-tetrahydropyran-4-yl)cyclohexane-1-carboxamide]",7.65
5,"COc1ccc([C@]2(C#N)CC[C@@H](C(=O)NO)CC2)c2c1OC1(CCCC1)C2 [Compound 7, cis-4-Cyano-4-(2,3-dihydro-7-methoxybenzofuran-2-spiro-1'-cyclopentan-4-yl)cyclohexane-1-carboxylic acid hydroxylamide]",7.52
6,"COc1ccc([C@]2(C#N)CC[C@@H](OP(=O)(O)Oc3ccccc3)CC2)c2c1OC1(CCCC1)C2 [Compound 8, cis-4-Cyano-4-(2,3-dihydro-7-methoxybenzofuran-2-spiro-1'-cyclopentan-4-yl)cyclohexyl-1-phenyl phosphate]",7.44
7,"COc1ccc(C2(C#N)CCOCC2)c2c1OC1(CCCC1)C2 [Compound 9, 4-a-Cyano-4-e-(2,3-dihydro-7-methoxybenzofuran-2-spiro-1'-cyclopentan-4-yl)tetrahydropyran]",8.26
8,"COc1ccc(C2(C#N)CCS(=O)(=O)CC2)c2c1OC1(CCCC1)C2 [Compound 11, 1,1-Dioxo-4-a-cyano-4-e-(2,3-dihydro-7-methoxybenzofuran-2-spiro-1'-cyclopentan-4-yl)tetrahydro-1-thiopyran]",7.72
9,"COc1ccc(C2(OC)CCOCC2)c2c1OC1(CCCC1)C2 [Compound 13, 4-a-Methoxy-4-e-(2,3-dihydro-7-methoxybenzofuran-2-spiro-1'-cyclopentan-4-yl)tetrahydropyran]",7.41
10,"COc1ccc(C2(C#N)CCC(=NO)CC2)c2c1OC1(CCCC1)C2 (centres unmarked) [Compound 14, 4-a-Cyano-4-e-(2,3-dihydro-7-methoxybenzofuran-2-spiro-1'-cyclopentan-4-yl)cyclohexan-1-one oxime]",7.78
11,"COc1ccc(C2(C#N)CCNC(=O)CC2)c2c1OC1(CCCC1)C2 (centres unmarked) [Compound 16, 7-Oxo-4-cyano-4-(2,3-dihydro-7-methoxybenzofuran-2-spiro-1'-cyclopentan-4-yl)hexahydroazepine]",7.96
